Results as given in ChEMBL document CHEMBL1152029 (1997).
The source made the active and inactive calls. The calls are words filed in the database; no cut-off is given here.

Legend:
Mus musculus [1] = experiment: The percent increase in life span was measured using CD2F1 male mice at 469 mg/kg dose; assay type: functional
[2] = Mean survival time of treated group(T) and Mean survival time of control group(C) was measured using CD2F1 male mice at 469 mg/kg dose; assay type: functional
V79 [3] = experiment: The cytotoxicity in vitro against Chinese hamster V-79 cells at concentration of 0.1 mM; assay type: functional; details: Cricetulus griseus, read-out: Survival
V79 [4] = experiment: The cytotoxicity in vitro against Chinese hamster V-79 cells at concentration of 1 mM; assay type: functional; details: Cricetulus griseus, read-out: Survival
V79 [5] = experiment: The cytotoxicity in vitro against Chinese hamster V-79 cells at concentration of 0.5 mM; assay type: functional; details: Cricetulus griseus, read-out: Survival
Mus musculus [6] = experiment: Mean survival time of compound was measured using CD2F1 male mice in group of ten at 469 mg/kg dose on day 30; assay type: functional
Mus musculus [7] = experiment: %Survival of compound was measured using CD2F1 male mice in group of ten at 469 mg/kg dose on day 30; assay type: functional; details: 720 h
V79 [8] = experiment: The in vitro radioprotective effect measured against Chinese hamster V-79 cells at concentration of 0.1 mM; assay type: functional, Cricetulus griseus
Mus musculus [9] = experiment: %Survival of compound was measured using CD2F1 male mice in group of ten at 239 mg/kg dose on day 30; assay type: functional; details: 720 h
Mus musculus [10] = experiment: The percent increase in life span was measured using CD2F1 male mice at 239 mg/kg dose; assay type: functional
Mus musculus [11] = experiment: Mean survival time of compound was measured using CD2F1 male mice in group of ten at 239 mg/kg dose on day 30; assay type: functional
Mus musculus [12] = experiment: Mean survival time of treated group(T) and Mean survival time of control group(C) was measured using CD2F1 male mice at 239 mg/kg dose; assay type: functional
V79 [13] = experiment: The cytotoxicity in vitro against Chinese hamster V-79 cells at concentration of 0.5 mM; NA= Not active; assay type: functional, cell-based; details: Cricetulus griseus
Mus musculus [14] = experiment: %Survival of compound was measured using CD2F1 male mice in group of ten at 400 mg/kg dose on day 30; assay type: functional; details: 720 h
V79 [15] = experiment: The cytotoxicity in vitro against Chinese hamster V-79 cells at concentration of 0.1 mM; NA= Not active; assay type: functional, cell-based; details: Cricetulus griseus
Mus musculus [16] = experiment: The percent increase in life span was measured using CD2F1 male mice at 400 mg/kg dose; assay type: functional
[17] = Mean survival time of treated group(T) and Mean survival time of control group(C) was measured using CD2F1 male mice at 400 mg/kg dose; assay type: functional
Mus musculus [18] = experiment: Mean survival time of compound was measured using CD2F1 male mice in group of ten at 400 mg/kg dose on day 30; assay type: functional

CNCCCNCCCSP(=O)(O)O
ILS at 469 mg/kg (Mus musculus [1]): 18% | Ratio [2]: 1.94 | viability at 100 µM (V79 [3]): 93% | viability at 1000 µM (V79 [4]): 90% | viability at 500 µM (V79 [5]): 99% | MST (Mus musculus [6]): 20 | survival at 469 mg/kg (Mus musculus [7]): 60% | DMF (V79 [8]): 1.5

NCCCNCCSP(=O)(O)O [AMIFOSTINE]
viability at 100 µM (V79 [3]): 100% | viability at 1000 µM (V79 [4]): 0% | viability at 500 µM (V79 [5]): 2% | survival at 239 mg/kg (Mus musculus [9]): 80% | ILS at 239 mg/kg (Mus musculus [10]): 130% | DMF (V79 [8]): 1.4 | MST (Mus musculus [11]): 27 | Ratio (Mus musculus [12]): 2.63

CNCCCNCCCSP(=O)(Oc1ccc(Cl)cc1)SCCCNCCCNC
Survival (V79 [13]): inactive | survival at 400 mg/kg (Mus musculus [14]): 50% | viability at 1000 µM (V79 [4]): 94% | Survival (V79 [15]): inactive | DMF (V79 [8]): 1.65 | ILS at 400 mg/kg (Mus musculus [16]): 73% | Ratio [17]: 2.26 | MST (Mus musculus [18]): 23
